Assays:
giant foxtail [1] = assay: Test A pre-/postemergence greenhouse test; format: in vivo, Setaria faberi; conditions: for Foxtail, Giant plant response rating: 0 to 100 scale
Procedure, shortened: (§1)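 Visual injury ratings against untreated controls, taken roughly ten days after treatment in greenhouse. Plants were sprayed postemergence at one- to two-leaf stage (2–10 cm tall); at the same time, seeded loam/sand soil received a directed preemergence spray. Formulation: non-phytotoxic solvent mixture with surfactant.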

velvetleaf = assay: Test A pre-/postemergence greenhouse test; format: in vivo, Abutilon theophrasti; conditions: for Velvetleaf plant response rating: 0 to 100 scale
Procedure, shortened: as §1

wheat = assay: Test A pre-/postemergence greenhouse test; format: in vivo, Triticum aestivum; conditions: for Wheat plant response rating: 0 to 100 scale
Procedure, shortened: as §1

corn = assay: Test A pre-/postemergence greenhouse test; format: in vivo, Zea mays; conditions: for Corn plant response rating: 0 to 100 scale
Procedure, shortened: as §1

downy brome = assay: Test C pre-/postemergence test; format: in vivo, Bromus tectorum; conditions: for Plant response rating, Bromegrass, Downy: scale 0 to 100, 0 no effect, 100 complete control
Procedure, shortened: (§2)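 Test chemicals were formulated with surfactant in a non-phytotoxic solvent and sprayed both on freshly planted seeds (preemergence) and on 1- to 4-leaf plants of 2–18 cm (postemergence). Flooded-paddy pots received compound directly into 3 cm of standing water, maintained for the test.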

catchweed bedstraw = assay: Test C pre-/postemergence test; format: in vivo, Galium aparine
Procedure, shortened: as §2

bermudagrass = assay: Test C pre-/postemergence test; format: in vivo, Cynodon dactylon; conditions: for Plant response rating, Bermudagrass: Postemergence, scale 0 to 100, 0 no effect, 100 complete control
Procedure, shortened: as §2

Surinam grass = assay: Test C pre-/postemergence test; format: in vivo, Brachiaria decumbens; conditions: for Surinam Grass plant response rating: preemergence, scale 0 (no effect) to 100 (complete control); for Plant response rating, Surinam Grass: scale 0 to 100, 0 no effect, 100 complete control
Procedure, shortened: as §2

crabgrass = assay: Test C pre-/postemergence test; format: in vivo, Digitaria sanguinalis; conditions: for Plant response rating, Crabgrass, Large: scale 0 to 100, 0 no effect, 100 complete control
Procedure, shortened: as §2

giant foxtail [2] = assay: Test C pre-/postemergence test; format: in vivo, Setaria faberii; conditions: for Plant response rating, Foxtail, Giant: scale 0 to 100, 0 no effect, 100 complete control
Procedure, shortened: as §2

johnsongrass = assay: Test C pre-/postemergence test; format: in vivo, Sorghum halepense; conditions: for Plant response rating, Johnsongrass: scale 0 to 100, 0 no effect, 100 complete control
Procedure, shortened: as §2

lambsquarters = assay: Test C pre-/postemergence test; format: in vivo, Chenopodium album; conditions: for Plant response rating, Lambsquarters: scale 0 to 100, 0 no effect, 100 complete control
Procedure, shortened: as §2

morningglory = assay: Test C pre-/postemergence test; format: in vivo, Ipomoea coccinea; conditions: for Plant response rating, Morningglory: scale 0 to 100, 0 no effect, 100 complete control
Procedure, shortened: as §2

pigweed = assay: Test C pre-/postemergence test; format: in vivo, Amaranthus retroflexus; conditions: for Plant response rating, Pigweed: scale 0 to 100, 0 no effect, 100 complete control
Procedure, shortened: as §2

soybean = assay: Test C pre-/postemergence test; format: in vivo, Glycine max; conditions: for Soybean plant response rating: preemergence, scale 0 (no effect) to 100 (complete control); for Plant response rating, Soybean: scale 0 to 100, 0 no effect, 100 complete control
Procedure, shortened: as §2

rice = assay: Test C flooded paddy test; format: in vivo, Oryza sativa; conditions: Flood
Procedure, shortened: (§3)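 Compound was added to standing water 3 cm above soil, flood maintained, and plants held in a greenhouse before visual scoring against controls at 13 to 15 days.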

barnyardgrass = assay: Test C flooded paddy test; format: in vivo, Echinochloa crus-galli; conditions: Flood
Procedure, shortened: as §3

[3] = Postemergence, 125 g ai/ha, 0 is no effect, 100 is complete control
[4] = Postemergence, 500 g ai/ha, 0 is no effect, 100 is complete control
[5] = Preemergence, 125 g ai/ha, 0 no effect, 100 complete control
[6] = Preemergence, 500 g ai/ha, 0 to 100 scale where 0 is no effect and 100 is complete control
[7] = 31 g ai/ha, Preemergence, scale 0 to 100
[8] = 62 g ai/ha, preemergence, scale 0 (no effect) to 100 (complete control)
[9] = preemergence, 125 g ai/ha, scale 0 (no effect) to 100 (complete control)
[10] = 31 g ai/ha, scale 0 to 100 (0 no effect, 100 complete control)
[11] = 62 g ai/ha, scale 0 to 100, 0 no effect, 100 complete control, 13 to 15 days
[12] = 125 g ai/ha, scale 0 to 100, 0 no effect, 100 complete control, 13 to 15 days
[13] = 250 g ai/ha, scale 0 to 100 (0 no effect, 100 complete control)

Cc1cc[n+]([O-])c([S+]([O-])Cc2c(C(F)(F)F)nn(C)c2OC(F)F)c1 (centres unmarked) [Compound 1]
60: Wheat plant response rating (wheat; [5]) | Plant response rating, Surinam Grass (Surinam grass; Postemergence, 250 g ai/ha) | Foxtail, Giant plant response rating (giant foxtail [2]; [7]) | Plant response rating, Foxtail, Giant (giant foxtail [2]; Postemergence, 250 g ai/ha) | Plant response rating (0 to 100), Soybean (soybean; Postemergence, 31 g ai/ha)
90: Foxtail, Giant plant response rating (giant foxtail [1]; [4]) | Plant response rating, Wheat (wheat; [6]) | Bermudagrass plant response rating (bermudagrass; [8]) | Johnsongrass plant response rating (johnsongrass; [8]) | Plant response rating, Soybean (soybean; Postemergence, 250 g ai/ha)
100: Foxtail, Giant plant response rating (giant foxtail [1]; [5]) | Plant response rating, Foxtail, Giant (giant foxtail [1]; [6]) | Plant response rating, Velvetleaf (velvetleaf; [6]) | Plant response rating (0 to 100), Bromegrass, Downy (downy brome; Preemergence, 250 g ai/ha) | Bromegrass, Downy plant response rating (downy brome; [9]) | Plant response rating (0 to 100), Bermudagrass (bermudagrass; Preemergence, 250 g ai/ha) | Bermudagrass plant response rating (bermudagrass; [9]) | Surinam Grass plant response rating (Surinam grass; 62 g ai/ha) | Plant response rating (0 to 100), Surinam Grass (Surinam grass; Preemergence, 250 g ai/ha) | Surinam Grass plant response rating (Surinam grass; 125 g ai/ha) | Plant response rating (0 to 100), Crabgrass, Large (crabgrass; Preemergence, 250 g ai/ha) | Crabgrass, Large plant response rating (crabgrass; [9]) | Plant response rating (0 to 100), Foxtail, Giant (giant foxtail [2]; Preemergence, 250 g ai/ha) | Foxtail, Giant plant response rating (giant foxtail [2]; [9]) | Plant response rating (0 to 100), Johnsongrass (johnsongrass; Preemergence, 250 g ai/ha) | Johnsongrass plant response rating (johnsongrass; [9]) | Lambsquarters plant response rating (lambsquarters; [7]) | Lambsquarters plant response rating (lambsquarters; [8]) | Plant response rating (0 to 100), Lambsquarters (lambsquarters; Preemergence, 250 g ai/ha) | Lambsquarters plant response rating (lambsquarters; [9]) | Morningglory plant response rating (morningglory; [8]) | Plant response rating (0 to 100), Morningglory (morningglory; Preemergence, 250 g ai/ha) | Morningglory plant response rating (morningglory; [9]) | Pigweed plant response rating (pigweed; [8]) | Plant response rating (0 to 100), Pigweed (pigweed; Preemergence, 250 g ai/ha) | Pigweed plant response rating (pigweed; [9]) | Soybean plant response rating (soybean; 62 g ai/ha) | Plant response rating (0 to 100), Soybean (soybean; Preemergence, 250 g ai/ha) | Soybean plant response rating (soybean; 125 g ai/ha)
80: Foxtail, Giant plant response rating (giant foxtail [1]; [3]) | Corn plant response rating (corn; [4]) | Plant response rating, Bermudagrass (bermudagrass; 250 g ai/ha) | Crabgrass, Large plant response rating (crabgrass; [8]) | Johnsongrass plant response rating (johnsongrass; [7]) | Pigweed plant response rating (pigweed; [7]) | Plant response rating, Rice (rice; [12]) | Plant response rating, Rice (rice; [13]) | Plant response rating, Barnyardgrass (barnyardgrass; [12]) | Plant response rating, Barnyardgrass (barnyardgrass; [13])
75: Plant response rating, Morningglory (morningglory; Postemergence, 250 g ai/ha)
98: Plant response rating (0 to 100), Galium (catchweed bedstraw; Preemergence, 250 g ai/ha) | Galium plant response rating (catchweed bedstraw; [9])
85: Galium plant response rating (catchweed bedstraw; [8]) | Bermudagrass plant response rating (bermudagrass; [7]) | Morningglory plant response rating (morningglory; [7]) | Plant response rating (0 to 100), Soybean (soybean; Postemergence, 62 g ai/ha) | Plant response rating, Soybean (soybean; Postemergence, 125 g ai/ha)
70: Velvetleaf plant response rating (velvetleaf; [4]) | Wheat plant response rating (wheat; [3]) | Wheat plant response rating (wheat; [4]) | Plant response rating, Corn (corn; [6]) | Galium plant response rating (catchweed bedstraw; [7]) | Plant response rating, Bermudagrass (bermudagrass; 125 g ai/ha) | Plant response rating, Crabgrass, Large (crabgrass; Postemergence, 250 g ai/ha) | Foxtail, Giant plant response rating (giant foxtail [2]; [8]) | Plant response rating, Lambsquarters (lambsquarters; Postemergence, 250 g ai/ha)
30: Velvetleaf plant response rating (velvetleaf; [5]) | Plant response rating, Surinam Grass (Surinam grass; Postemergence, 125 g ai/ha) | Plant response rating, Crabgrass, Large (crabgrass; Postemergence, 62 g ai/ha)
40: Plant response rating, Lambsquarters (lambsquarters; Postemergence, 62 g ai/ha) | Plant response rating, Lambsquarters (lambsquarters; Postemergence, 125 g ai/ha) | Plant response rating (0 to 100), Morningglory (morningglory; Postemergence, 31 g ai/ha) | Plant response rating, Morningglory (morningglory; Postemergence, 62 g ai/ha)
50: Velvetleaf plant response rating (velvetleaf; [3]) | Corn plant response rating (corn; [3]) | Bromegrass, Downy plant response rating (downy brome; [8]) | Plant response rating, Crabgrass, Large (crabgrass; Postemergence, 125 g ai/ha)
10: Plant response rating (0 to 100), Crabgrass, Large (crabgrass; Postemergence, 31 g ai/ha) | Plant response rating, Johnsongrass (johnsongrass; Postemergence, 250 g ai/ha) | Plant response rating, Pigweed (pigweed; Postemergence, 250 g ai/ha)
0: Corn plant response rating (corn; [5]) | Bromegrass, Downy plant response rating (downy brome; [7]) | Plant response rating (0 to 100), Bromegrass, Downy (downy brome; Postemergence, 31 g ai/ha) | Plant response rating, Bromegrass, Downy (downy brome; Postemergence, 62 g ai/ha) | Plant response rating, Bromegrass, Downy (downy brome; Postemergence, 125 g ai/ha) | Plant response rating, Bromegrass, Downy (downy brome; Postemergence, 250 g ai/ha) | Plant response rating (0 to 100), Surinam Grass (Surinam grass; Postemergence, 31 g ai/ha) | Plant response rating (0 to 100), Surinam Grass (Surinam grass; Postemergence, 62 g ai/ha) | Crabgrass, Large plant response rating (crabgrass; [7]) | Plant response rating (0 to 100), Foxtail, Giant (giant foxtail [2]; Postemergence, 31 g ai/ha) | Plant response rating, Foxtail, Giant (giant foxtail [2]; Postemergence, 62 g ai/ha) | Plant response rating (0 to 100), Johnsongrass (johnsongrass; Postemergence, 31 g ai/ha) | Plant response rating, Johnsongrass (johnsongrass; Postemergence, 62 g ai/ha) | Plant response rating, Johnsongrass (johnsongrass; Postemergence, 125 g ai/ha) | Plant response rating (0 to 100), Lambsquarters (lambsquarters; Postemergence, 31 g ai/ha) | Plant response rating (0 to 100), Pigweed (pigweed; Postemergence, 31 g ai/ha) | Plant response rating (0 to 100), Pigweed (pigweed; Postemergence, 62 g ai/ha) | Plant response rating, Pigweed (pigweed; Postemergence, 125 g ai/ha) | Plant response rating, Rice (rice; [10]) | Plant response rating, Rice (rice; [11]) | Plant response rating, Barnyardgrass (barnyardgrass; [10]) | Plant response rating, Barnyardgrass (barnyardgrass; [11])
45: Plant response rating, Foxtail, Giant (giant foxtail [2]; Postemergence, 125 g ai/ha) | Plant response rating, Morningglory (morningglory; Postemergence, 125 g ai/ha)

— patent US20100298141A1, “SUBSTITUTED PYRIDINE N-OXIDE HERBICIDES” (E. I. DU PONT DE NEMOURS AND COMPANY, priority 2007, published 2010)
